Earlier results as cited in patent US5565606A, “Synthesis of peptide aminoalkylamides and peptide hydrazides by the solid-phase method” (Hoechst Aktiengesellschaft, priority 1986, dated 1996).
Read-outs that look alike come from different tables or passages of the source.

What was measured:
[1] = system: amnesia induced by electric shock or scopolamine; conditions: s.c. administration, mice; from EP-A 179 332
[2] = system: urge to groom and move; conditions: rats, from EP-A 179 332
[3] = system: choline content in the striatum; conditions: rats, s.c. administration of 10 μg; from EP-A 179 332

Met(O)-Glu-His-Phe-D-Lys-Phe-NH-(CH2)8 -NH2
minimum effective dose, weakening of amnesia [1]: 0.03 µg/kg

benzyloxycarbonyl-D-Lys-Phe-NH-(CH2)8 -NH2.2HCl
urge to groom and move ([2]; i.c.v. administration of 1 μg): the same action

benzyloxycarbonyl-Lys-Phe-OMe
urge to groom and move ([2]; i.c.v. administration of 10 μg): cause the urge to groom and move
choline content in the striatum [3]: increased
